Assay results taken from patent US9717745B2, “Pharmaceutical compositions and their use for treatment of cancer and autoimmune diseases” (ZHEJIANG DTRM BIOPHARMA CO. LTD., priority 2015, dated 2017).
Like-named read-outs stand apart in the source and are kept apart here. Marks after values point to notes of the source that are not given here.

Key:
[1] = test system: WSU-DLCL2 tumor cells; conditions: oral gavage to mice, 480 mg/kg/day, Knutson et al. 2014, cited from earlier work
[2] = Adjuvant-induced arthritis (AA/AIA) model in female Lewis rats; type: in vivo; conditions: for Paw volume of AA rats model (in words): FIG. 13; for Paw volume (Mean): 11 (3 mg/kg) BID positive control, oral from day 13
Method: Adjuvant-Induced Arthritis AA Model:
The combination of Compounds 3 and 14 was evaluated in adjuvant-induced arthritis (AA) model in female Lewis rats. All rats except the normal group were immunized with complete Freund's adjuvant (CFA) subcutaneously at the left hind paw to induce arthritis at day 0. At 6 days post immunization, some rats started to display clinical symptoms of arthritis, e.g. erythema and swelling. […] The treatments were given orally for 3 consecutive weeks. The body weight, paw volume and clinical score were monitored every other day after day 13 throughout the course of the study. At the terminal point, right hind paws were collected for histopathology analysis with H.E. staining.

[3] = Collagen-induced arthritis (CIA) model in male DBA/1 mice; type: in vivo; parameters: Clinical Score (Mean) / Pathological score: Inflammatory cell infiltration / Pathological score: Pannus growth / Pathological score: Cartilage injury / Pathological score: Bone resorption / Pathological score: Total: scale not given here; conditions: for Clinical score of CIA mice model (in words): FIG. 15; for Clinical Score (Mean): Dexamethasone 0.2 mg/kg
Method: Collagen-Induced Arthritis (CIA) Model:
The combination of Compounds 3 and 12 was evaluated in collagen induced arthritis (CIA) mouse model in Male DBA/1 mice. The animals were divided into 8 groups, including a normal, a vehicle, […] treatment groups: All animals (except the normal group) were immunized with 200 μg of bovine collagen (type II) on day 0 and day 21. Seven days (day 28) after boosting immunization, animals started to show symptoms of disease with an average clinical score around 1. […] The treatments were given orally for 2 consecutive weeks. Body weight and clinical score were monitored through the study (recorded three times a week started after second immunization). At the end of the study, animals were euthanized and both hind paws were collected for histopathology analysis.

[4] = test system: WSU-DLCL2 tumor cells; test: Inhibition of tumor growth in vivo, resistant WSU-DLCL2 xenograft SCID mouse model; parameters: species or system mice; conditions: FIG. 8
Method: (§1) Inhibition Study of Tumor Growth In Vivo:
(§2) SCID mice or nude mice (weighing about 18 g at the beginning of the experiment) were randomly divided into groups by the software in order to achieve close average weights between groups and control the bias within the allowable range. The mice were injected BTK cell lines (TMD-8, WSU-DLCL2 and DoHH-2) for tumor formation. Inhibitors were administered orally once or twice a day, a total of 14 days, 21 days or 28 days. Body weights and tumor volume were recorded.
(§3) Xenograft Tumor Models Inoculated with TMD-8, or DoHH2, or WSU-DLCL2 Tumor Cell Lines:
(§4) TMD-8 is a sensitive human diffuse large B-cell lymphoma cell line, and DoHH2 is a more difficult to treat human follicular lymphoma cell line, while WSU-DLCL2 is a multi-drug resistant (MDR) human non-Hodgkin's lymphoma cell line.
The TMD-8, DoHH2, WSU-DLCL2 tumor cells were maintained in vitro as a suspension culture in RPMI-1640 medium supplemented with 10% heat inactivated fetal calf serum at 37° C. in an atmosphere of 5% CO2 in air. The tumor cells were routinely subcultured twice weekly. The cells growing in an exponential growth phase were harvested and counted for tumor inoculation. […] Animal body weight and tumor volume were measured every 2- or 3-days throughout the treatment.

[5] = test system: TMD-8 tumor cells; test: Inhibition of tumor growth in vivo, TMD-8 lymphoma xenograft SCID mouse model; conditions: TMD-8 mice model, oral
Method: as §1, §2, §3
as §4, with “line. Drug combination therapies provide better efficacies in all three tumor models than single targeted agent alone.” for “line.”
The TMD-8, DoHH2, WSU-DLCL2 tumor cells were maintained in vitro as a suspension culture in RPMI-1640 medium supplemented with 10% heat inactivated fetal calf serum at 37° C. in an atmosphere of 5% CO2 in air. The tumor cells were routinely subcultured twice weekly. The cells growing in an exponential growth phase were harvested and counted for tumor inoculation. Each mouse was inoculated subcutaneously at the right flank with the tumor cells (10×10^6) in 0.2 ml of PBS with Matrigel (1:1) for tumor development. The treatments were started after the average tumor size reached approximately 100-200 mm^3. Each group consisted of 6-10 tumor-bearing mice. The testing article (vehicle, compound or combination) was orally administrated to the mice according to the predetermined doses for 14-days or 21-days. Animal body weight and tumor volume were measured every 2- or 3-days throughout the treatment.

[6] = Collagen-induced arthritis (CIA) model in male DBA/1 mice; type: in vivo; parameters: scale not given here; conditions: CIA study, 14 alone, 0.15 mg/kg QD, Mean ± SEM
[7] = test system: TMD-8 cell line; test: Inhibition assay of tumor cell activity (cell viability), TMD-8; type: cell-based, human; conditions: 48 hours incubation
Method: Inhibition Assay of Tumor Cell Activity:
Tumor cells (TMD-8, DoHH2 and WSU-DLCL2) were transferred and attached to 96-well plates. After one night, blank buffer and selected concentrations (0.01 nM-100 μM) of the test compound solution were added. After 48 hours incubation, CellTiter-Go was added to lyse the cells. Recording luminescent signal and calculate the percent inhibition of cell viability.

[8] = AA study, 11, 3 mg/kg, Mean ± SEM
[9] = CIA study, Left hind paw, Dexamethasone 0.2 mg/kg QD, Mean ± SEM
[10] = CIA study, Right hind paw, Dexamethasone 0.2 mg/kg QD, Mean ± SEM

CCN(c1cc(-c2ccc(CN3CCOCC3)cc2)cc(C(=O)NCc2c(C)cc(C)[nH]c2=O)c1C)C1CCOCC1 [EPZ-6438]
Tumor growth inhibition in WSU-DLCL tumor model (in words) [1]: achieved a similar effect
Tumor growth inhibition in WSU-DLCL tumor model (in words) ([1]; listed as EZ-6438): inhibited tumor growth

C=CC(=O)N1CC[C@@H](n2nc(-c3ccc(Oc4c(F)c(F)cc(F)c4F)cc3F)c3c(N)ncnc32)C1 [Compound 3, 1-((R)-3-(4-amino-3-(2-fluoro-4-(2,3,5,6-tetrafluorophenoxy)phenyl)-1H-pyrazolo[3,4-d]pyrimidin-1-yl)pyrrolidin-1-yl)prop-2-en-1-one]
Paw volume of AA rats model (in words) [2]: treatment effects are absent
Clinical score of CIA mice model (in words) [3]: treatment effects are absent
Efficacy in WSU-DLCL2 non-Hodgkin's lymphoma mice model (in words) [4]: in line with the efficacy of Ibrutinib

CO[C@H]1C[C@@H]2CC[C@@H](C)[C@@](O)(O2)C(=O)C(=O)N2CCCC[C@H]2C(=O)O[C@H]([C@H](C)C[C@@H]2CC[C@@H](OCCO)[C@H](OC)C2)CC(=O)[C@H](C)/C=C(\C)[C@@H](O)[C@@H](OC)C(=O)[C@H](C)C[C@H](C)/C=C/C=C/C=C/1C [Compound 14, Everolimus]
Pathological score: Bone resorption ([2]; AA study, 14 alone, 0.5 mg/kg, Mean ± SEM): 3.5 ± 0.17
Paw volume of AA rats model (in words) [2]: treatment effects are absent
Days of treatment to tumor disappearance / complete tumor regression [5]: 15 days
Tumor disappearance (in words) [5]: complete disappearance of tumor grafts
Tumor rebound after treatment was stopped [5]: tumor rebounded
Tumor rebound after treatment was stopped ([5]; listed as Everolimus): quickly rebounded
Clinical score of CIA mice model (in words) [3]: treatment effects are absent
Pathological score: Bone resorption ([6]; Left hind paw): 1.80 ± 0.61
Pathological score: Bone resorption ([6]; Right hind paw): 2.00 ± 0.67

CN(Cc1cnc2nc(N)nc(N)c2n1)c1ccc(C(=O)N[C@@H](CCC(=O)O)C(=O)O)cc1 [Compound 18, Methotrexate]
Inhibition of individual compound on TMD-8 cell line (Inh %) AVG ([7]; 0.01 uM): −8.45%
Inhibition of individual compound on TMD-8 cell line (Inh %) AVG ([7]; 0.1 uM): 32.04%
Inhibition of individual compound on TMD-8 cell line (Inh %) AVG ([7]; 1 uM): 39.55%

C[C@@H]1CCN(C(=O)CC#N)C[C@@H]1N(C)c1ncnc2[nH]ccc12 [Compound 11, Tofactinib]
Pathological score: Bone resorption [2, 8]: 0.5 ± 0.22
Pathological score: Cartilage injury [2, 8]: 0.2 ± 0.20
Pathological score: Inflammatory cell infiltration [2, 8]: 1.9 ± 0.18
Pathological score: Pannus growth [2, 8]: 0.4 ± 0.22
Pathological score: Total [2, 8]: 3.0 ± 0.73
Paw volume (Mean) ([2]; Day 0): 1.00 mL
Paw volume (Mean) ([2]; Day 17): 1.54*** mL
Paw volume (Mean) ([2]; Day 26): 1.37*** mL
Paw volume (Mean) ([2]; Day 28): 1.33*** mL
Paw volume (Mean) ([2]; Day 31): 1.23*** mL
Paw volume (Mean) ([2]; Day 33): 1.23*** mL
Inhibition of individual compound on TMD-8 cell line (Inh %) AVG ([7]; 0.01 uM): 6.02%
Inhibition of individual compound on TMD-8 cell line (Inh %) AVG ([7]; 0.1 uM): 1.31%
Inhibition of individual compound on TMD-8 cell line (Inh %) AVG ([7]; 1 uM): 6.66%

C[C@@H]1C[C@H]2[C@@H]3CCC4=CC(=O)C=C[C@]4(C)[C@@]3(F)[C@@H](O)C[C@]2(C)[C@@]1(O)C(=O)CO [Dexamethasone]
Pathological score: Total ([3]; CIA study, Dexamethasone 0.2 mg/kg QD, Mean ± SEM): 0.00 ± 0.00
Pathological score: Bone resorption [3, 9]: 0.00 ± 0.00
Pathological score: Cartilage injury [3, 9]: 0.00 ± 0.00
Pathological score: Inflammatory cell infiltration [3, 9]: 0.00 ± 0.00
Pathological score: Pannus growth [3, 9]: 0.00 ± 0.00
Pathological score: Bone resorption [3, 10]: 0.00 ± 0.00
Pathological score: Cartilage injury [3, 10]: 0.00 ± 0.00
Pathological score: Inflammatory cell infiltration [3, 10]: 0.00 ± 0.00
Pathological score: Pannus growth [3, 10]: 0.00 ± 0.00
Clinical Score (Mean) ([3]; CIA study, day 21 after first immunization): 0.00
Clinical Score (Mean) ([3]; CIA study, day 32): 0.60***
Clinical Score (Mean) ([3]; CIA study, day 39): 0.40***
Clinical Score (Mean) ([3]; CIA study, day 42): 0.20***
